Measured values: patent US8481544B2, “Antibacterial compositions” (Biota Europe Limited, priority 2006, dated 2013)
Converted amounts (≈) assume the structure as drawn.

The compounds below were run on Enterococcus faecalis ATCC 29212 (assay: MIC against Enterococcus faecalis ATCC 29212). Details: ATCC29212; Enterococcus faecalis ATCC 29212; read-out: MICs against Enterococcus faecalis, Activity.
Type: cell-based
Procedure: Institute. Methods for Dilution Antimicrobial Susceptibility Tests for Bacteria That Grow Aerobically; Approved Standard—Seventh Edition. Document M7-A7. CLSI, Wayne, Pa., 2006; Clinical Laboratories and Standards Institute. Methods for Antimicrobial Susceptibility Testing of Anaerobic Bacteria; Approved Standard—Sixth Edition. Document M11-A6. CLSI, Wayne, Pa., 2004).
Compounds of this invention were tested for antimicrobial activity by susceptibility testing in liquid or on solid media. MICs for compounds against each strain were determined by the broth microdilution or agar dilution method according to the guidelines of the Clinical Laboratories and Standards Institute, formerly the National Committee for Clinical Laboratory Standards (Clinical Laboratories and Standards Institute. Methods for Dilution Antimicrobial Susceptibility Tests for Bacteria That Grow Aerobically; Approved Standard—Seventh Edition. Document M7-A7. CLSI, Wayne, Pa., 2006; Clinical Laboratories and Standards Institute. Methods for Antimicrobial Susceptibility Testing of Anaerobic Bacteria; Approved Standard—Sixth Edition. Document M11-A6. CLSI, Wayne, Pa., 2004).

MIC [µg/mL] | SMILES
0.25 to 1 (≈ 0.597 to 2.39 µM) | CCNC(=O)Nc1nc2cc(-c3cccnc3)cc(-c3cc(C(N)=O)ccn3)c2s1 [Example 108, 2-[2-(3-Ethyl-ureido)-5-pyridin-3-yl-benzothiazol-7-yl]-isonicotinamide]
< 0.25 | CCNC(=O)Nc1nc2cc(-c3cnc(N)nc3)cc(-c3ccccn3)c2s1 [Example 154, 1-[5-(2-Amino-pyrimidin-5-yl)-7-pyridin-2-yl-benzothiazol-2-yl]-3-ethyl-urea]
< 0.25 | CCNC(=O)Nc1nc2cc(-c3cccnc3)cc(-c3cc(Cl)ccn3)c2s1 [Example 127, 1-[7-(4-Chloro-pyridin-2-yl)-5-pyridin-3-yl-benzothiazol-2-yl]-3-ethyl-urea]
< 0.25 | CCNC(=O)Nc1nc2cc(-c3cncc(C)c3)cc(-c3ccccn3)c2s1 [Example 36, 1-Ethyl-3-[5-(5-methyl-pyridin-3-yl)-7-pyridin-2-yl-benzothiazol-2-yl]-urea]
0.25 to 1 (≈ 0.639 to 2.55 µM) | CCNC(=O)Nc1nc2cc(-c3ccnc(O)c3)cc(-c3ccccn3)c2s1 [Example 56, 1-Ethyl-3-[5-(2-hydroxy-pyridin-4-yl)-7-pyridin-2-yl-benzothiazol-2-yl]-urea]
0.25 to 1 (≈ 0.574 to 2.3 µM) | CCNC(=O)Nc1nc2cc(-c3ccn(CCO)c(=O)c3)cc(-c3ccccn3)c2s1 [Example 57, 1-Ethyl-3-{5-[1-(2-hydroxy-ethyl)-2-oxo-1,2-dihydro-pyridin-4-yl]-7-pyridin-2-yl-benzothiazol-2-yl}-urea]
0.25 to 1 (≈ 0.684 to 2.74 µM) | CCNC(=O)Nc1nc2cc(-c3cccnc3)cc(-c3ncco3)c2s1 [Example 165, 1-Ethyl-3-(7-oxazol-2-yl-5-pyridin-3-yl-benzothiazol-2-yl)-urea]
< 0.25 | CCNC(=O)Nc1nc2cc(-c3ccc(C)nc3)cc(-c3ccccn3)c2s1 [Example 41, 1-Ethyl-3-[5-(6-methyl-pyridin-3-yl)-7-pyridin-2-yl-benzothiazol-2-yl]-urea]
0.25 to 1 (≈ 0.53 to 2.12 µM) | CCNC(=O)Nc1nc2cc(-c3ccc(NC(C)=O)nc3)cc(-c3nccc4cc[nH]c34)c2s1 [Example 137, N-{5-[2-(3-Ethyl-ureido)-7-(1H-pyrrolo[2,3-c]pyridin-7-yl)-benzothiazol-5-yl]-pyridin-2-yl}-acetamide]
2 to 16 (≈ 5.31 to 42.5 µM) | CCNC(=O)Nc1nc2cc(-c3cccnc3)cc(-c3cccnn3)c2s1 [Example 160, 1-Ethyl-3-(7-pyridazin-3-yl-5-pyridin-3-yl-benzothiazol-2-yl)-urea]
0.25 to 1 (≈ 0.603 to 2.41 µM) | CCNC(=O)Nc1nc2cc(-c3ccc4nccn4c3)cc(-c3cccnc3)c2s1 [Example 22, 1-Ethyl-3-(5-imidazo[1,2-a]pyridin-6-yl-7-pyridin-3-yl-benzothiazol-2-yl)-urea]
0.25 to 1 (≈ 0.664 to 2.66 µM) | CCNC(=O)Nc1nc2cc(-c3cccnc3)cc(-c3cncnc3)c2s1 [Example 159, 1-Ethyl-3-(5-pyridin-3-yl-7-pyrimidin-5-yl-benzothiazol-2-yl)-urea]
0.25 to 1 (≈ 0.639 to 2.55 µM) | CCNC(=O)Nc1nc2cc(-c3cccnc3)cc(-c3cnc(N)nc3)c2s1 [Example 42, 1-[7-(2-Amino-pyrimidin-5-yl)-5-pyridin-3-yl-benzothiazol-2-yl]-3-ethyl-urea]
0.25 to 1 (≈ 0.642 to 2.57 µM) | CCNC(=O)Nc1nc2cc(-c3cccnc3C)cc(-c3ccccn3)c2s1 [Example 52, 1-Ethyl-3-[5-(2-methyl-pyridin-3-yl)-7-pyridin-2-yl-benzothiazol-2-yl]-urea]
0.25 to 1 (≈ 0.666 to 2.66 µM) | CCNC(=O)Nc1nc2cc(-c3ccncc3)cc(-c3cccnc3)c2s1 [Example 30, 1-Ethyl-3-(5-pyridin-4-yl-7-pyridin-3-yl-benzothiazol-2-yl)-urea]
< 0.25 | CCNC(=O)Nc1nc2cc(-c3cccnc3)cc(-c3ccc4cc[nH]c4n3)c2s1 [Example 111, 1-Ethyl-3-[5-pyridin-3-yl-7-(1H-pyrrolo[2,3-b]pyridin-6-yl)-benzothiazol-2-yl]-urea]
0.25 to 1 (≈ 0.615 to 2.46 µM) | CCNC(=O)Nc1nc2cc(-c3cnc(OC)nc3)cc(-c3cccnc3)c2s1 [Example 15, 1-Ethyl-3-[5-(2-methoxy-pyrimidin-5-yl)-7-pyridin-3-yl-benzothiazol-2-yl]-urea]
< 0.25 | CCNC(=O)Nc1nc2cc(-c3cccnc3)cc(-c3ncnc4[nH]ccc34)c2s1 [Example 116, 1-Ethyl-3-[5-pyridin-3-yl-7-(7H-pyrrolo[2,3-d]pyrimidin-4-yl)-benzothiazol-2-yl]-urea]
2 to 16 (≈ 5.2 to 41.6 µM) | CCNC(=O)Nc1nc2cc(-c3cccnc3)cc(NC(=O)NCC)c2s1 [Example 150, 1-Ethyl-3-[2-(3-ethyl-ureido)-5-pyridin-3-yl-benzothiazol-7-yl]-urea]
< 0.25 | CCNC(=O)Nc1nc2cc(-c3cccnc3)cc(-c3nccc(N)n3)c2s1 [Example 110, 1-[7-(4-Amino-pyrimidin-2-yl)-5-pyridin-3-yl-benzothiazol-2-yl]-3-ethyl-urea]

MIC [µg/mL] | SMILES
0.25 to 1 (≈ 0.668 to 2.67 µM) | CCNC(=O)Nc1nc2cc(-c3cccnc3)cc(-c3ccccc3)c2s1 [Example 78, 1-Ethyl-3-(7-phenyl-5-pyridin-3-yl-benzothiazol-2-yl)-urea]
0.25 to 1 (≈ 0.577 to 2.31 µM) | CCNC(=O)Nc1nc2cc(-c3ccc(C(=O)OC)nc3)cc(-c3cccnc3)c2s1 [Example 26, 5-[2-(3-Ethyl-ureido)-7-pyridin-3-yl-benzothiazol-5-yl]-pyridine-2-carboxylic acid methyl ester]
< 0.25 | CCNC(=O)Nc1nc2cc(-c3cccnc3)cc(-c3cccc(CO)n3)c2s1 [Example 104, 1-Ethyl-3-[7-(6-hydroxymethyl-pyridin-2-yl)-5-pyridin-3-yl-benzothiazol-2-yl]-urea]
0.25 to 1 (≈ 0.597 to 2.39 µM) | CCNC(=O)Nc1nc2cc(-c3cccnc3)cc(-c3ccc(C(N)=O)cn3)c2s1 [Example 98, 6-[2-(3-Ethyl-ureido)-5-pyridin-3-yl-benzothiazol-7-yl]-nicotinamide]
2 to 16 (≈ 5.11 to 40.9 µM) | CCNC(=O)Nc1nc2cc(-c3cccnc3)cc(-c3cccc(O)n3)c2s1 [Example 173, 1-Ethyl-3-[7-(6-hydroxy-pyridin-2-yl)-5-pyridin-3-yl-benzothiazol-2-yl]-urea]
0.25 to 1 (≈ 0.664 to 2.66 µM) | CCNC(=O)Nc1nc2cc(-c3cnccn3)cc(-c3cccnc3)c2s1 [Example 43, 1-Ethyl-3-(5-pyrazin-2-yl-7-pyridin-3-yl-benzothiazol-2-yl)-urea]
< 0.25 | CCNC(=O)Nc1nc2cc(-c3cccnc3)cc(-c3ccc(N)cn3)c2s1 [Example 99, 1-[7-(5-Amino-pyridin-2-yl)-5-pyridin-3-yl-benzothiazol-2-yl]-3-ethyl-urea]
2 to 16 (≈ 4.22 to 33.8 µM) | CCNC(=O)Nc1nc2cc(-c3ccc(CN4CCOCC4)cc3)cc(-c3cccnc3)c2s1 [Example 21, 1-Ethyl-3-[5-(4-morpholin-4-ylmethyl-phenyl)-7-pyridin-3-yl-benzothiazol-2-yl]-urea]
0.25 to 1 (≈ 0.603 to 2.41 µM) | CCNC(=O)Nc1nc2cc(-c3cnc4[nH]ccc4c3)cc(-c3cccnc3)c2s1 [Example 49, 1-Ethyl-3-[7-pyridin-3-yl-5-(1H-pyrrolo[2,3-b]pyridin-5-yl)-benzothiazol-2-yl]-urea]
< 0.25 | CCNC(=O)Nc1nc2cc(-c3cccnc3)cc(-c3cc(C)ccn3)c2s1 [Example 176, 1-Ethyl-3-[7-(4-methyl-pyridin-2-yl)-5-pyridin-3-yl-benzothiazol-2-yl]-urea]
0.25 to 1 (≈ 0.597 to 2.39 µM) | CCNC(=O)Nc1nc2cc(-c3cccnc3)cc(-c3cccc(N(C)C)n3)c2s1 [Example 168, 1-[7-(6-Dimethylamino-pyridin-2-yl)-5-pyridin-3-yl-benzothiazol-2-yl]-3-ethyl-urea]
< 0.25 | CCNC(=O)Nc1nc2cc(-c3cccnc3)cc(-c3cc(N)ccn3)c2s1 [Example 100, 1-[7-(4-Amino-pyridin-2-yl)-5-pyridin-3-yl-benzothiazol-2-yl]-3-ethyl-urea]
2 to 16 (≈ 5.28 to 42.3 µM) | CCNC(=O)Nc1nc2cc(-c3cccnc3)cc(-c3nccn3C)c2s1 [Example 162, 1-Ethyl-3-[7-(1-methyl-1H-imidazol-2-yl)-5-pyridin-3-yl-benzothiazol-2-yl]-urea]
< 0.25 | CCNC(=O)Nc1nc2cc(-c3cccnc3)cc(-c3cccc(C#N)n3)c2s1 [Example 113, 1-[7-(6-Cyano-pyridin-2-yl)-5-pyridin-3-yl-benzothiazol-2-yl]-3-ethyl-urea]
0.25 to 1 (≈ 0.637 to 2.55 µM) | CCNC(=O)Nc1nc2cc(-c3cccnc3)cc(-c3ccccc3F)c2s1 [Example 75, 1-Ethyl-3-[7-(2-fluoro-phenyl)-5-pyridin-3-yl-benzothiazol-2-yl]-urea]
2 to 16 (≈ 5.12 to 41 µM) | CCNC(=O)Nc1nc2cc(-c3cnccc3N)cc(-c3cccnc3)c2s1 [Example 44, 1-[5-(4-Amino-pyridin-3-yl)-7-pyridin-3-yl-benzothiazol-2-yl]-3-ethyl-urea]
< 0.25 | CCNC(=O)Nc1nc2cc(-c3cccnc3)cc(-c3nccs3)c2s1 [Example 92, 1-Ethyl-3-(5-pyridin-3-yl-7-thiazol-2-yl-benzothiazol-2-yl)-urea]
< 0.25 | CCNC(=O)Nc1nc2cc(-c3ccc(CO)nc3)cc(-c3ccccn3)c2s1 [Example 34, 1-Ethyl-3-[5-(6-hydroxymethyl-pyridin-3-yl)-7-pyridin-2-yl-benzothiazol-2-yl]-urea]
2 to 16 (≈ 5.1 to 40.8 µM) | CCNC(=O)Nc1nc2cc(-c3cnccn3)cc(-c3cnc(N)nc3)c2s1 [Example 73, 1-[7-(2-Amino-pyrimidin-5-yl)-5-pyrazin-2-yl-benzothiazol-2-yl]-3-ethyl-urea]
< 0.25 | CCNC(=O)Nc1nc2cc(-c3cncc(N)n3)cc(-c3ccccn3)c2s1 [Example 53, 1-[5-(6-Amino-pyrazin-2-yl)-7-pyridin-2-yl-benzothiazol-2-yl]-3-ethyl-urea]
